Data from a melting point compilation (Tetko et al.; mined from patent text by program, amines drawn as free bases though some values may be those of a salt).

First: CCCCC1=C(C(=O)O)Nc2ccc(C(=O)O)cc2C1O (stereo not given)
Second: O=C(O)c1ccc(S(=O)(=O)CCO)c([N+](=O)[O-])c1
The melting point of the first is higher: greater than 260 °C for the first, 190 to 192 °C for the second.

First: Cc1cccc(-c2cn(C)cc(-c3ccc(Br)cc3)c2=O)c1
Second: O=C(O)c1ccc(-c2cc3ccccc3o2)cc1
The melting point of the first is lower: 201 to 204 °C for the first, 292 to 294 °C for the second.

`O=c1c2ccc(Cl)cc2[nH]c2c(O)nn(Cc3ccoc3)c(=O)c12` and `CCN1C(=O)C(C(=O)Nc2ccc(Cl)cc2Oc2ccc(Cl)cc2)C(=O)N(C)C1=S` (stereo not given) cannot be ordered by melting point: greater than 250 °C for the first, 250 to 251 °C for the second.

Compared with `COC(=O)[C@@H]1COC(=O)N1c1nc(-c2ccc(Br)cc2)cs1`, `CN1C2CCCC1CC(NC(=O)c1cccc3oc(-c4ccc(Cl)cc4)nc13)C2` (stereo not given) is higher in melting point: 165 to 167 °C for the first, 185 to 187 °C for the second.

First: CCCn1c(=O)c2[nH]c(/C=C/c3ccc(OC)c(C)c3OC)nc2n(CCC)c1=O
Second: CNc1nc(Cc2cc(OC)c(OC)c(OC)c2)nc2sc(C#N)c(C)c12
The melting point of the first is higher: 255 to 256 °C for the first, 194 to 195 °C for the second.

First: COC1C=C(C)C(=O)CC(C)(C)C1OC(=O)c1ccc([N+](=O)[O-])c([N+](=O)[O-])c1 (stereo not given)
Second: Nc1ccc(N2C(=O)c3cccc([N+](=O)[O-])c3C2=O)cc1
The melting point of the first is lower: 103 to 104 °C for the first, 177 °C for the second.

Compared with `CC(=O)N[C@@H](CSC(c1ccccc1)(c1ccccc1)c1ccccc1)C(=O)N1CCSC1`, `Clc1ccc2c(Nc3ccc(CNC4CCN(Cc5ccccc5)CC4)cc3)ccnc2c1` is lower in melting point: 197 to 198 °C for the first, 160 to 164 °C for the second.

Compared with `CC(C)(C)[N+]([O-])=Cc1ccc(S(C)(=O)=O)o1`, `CCSc1cccc2c1C(=O)c1cccc(SCC)c1C2=O` is higher in melting point: 138 °C for the first, 235 to 236 °C for the second.

First: COc1ccc(CCc2cc(OC)c(OC)c(OC)c2)cc1
Second: COc1ccc(C#Cc2cc3ncc(C#N)c(Nc4cc(OC)c(Cl)cc4Cl)c3s2)cc1
The melting point of the first is lower: 73 to 75 °C for the first, 249 to 250 °C for the second.

Compared with `COc1cccc2c(CCBr)coc12`, `CCCCn1c(=O)c(C(=O)OCC)c(O)c2ccccc21` is higher in melting point: 61 to 62 °C for the first, 147 to 148 °C for the second.

First: CCCSc1nc(NC2CC2c2ccc(OC)c(C)c2)c2nnn(C3CC(O)C(O)C3O)c2n1 (stereo not given)
Second: CCc1nc2c(N)nc3cc(CCC(=O)N4CCSC4)ccc3c2n1CC(C)(C)O
The melting point of the first is lower: 135 to 136 °C for the first, 210 to 212 °C for the second.

First: O=C(Nc1cc[nH]c(=O)n1)OCc1ccccc1
Second: CCOC(=O)C(=O)c1csc(NC(=O)Nc2ccccc2F)n1
The melting point of the first is higher: greater than 250 °C for the first, 219 to 225 °C for the second.

First: CCCNC(=O)n1nc(Oc2c(Cl)cc(C(F)(F)F)cc2Cl)cc1C(Cl)(Cl)Cl
Second: Cc1c(C(F)(F)F)nn(C(C)C)c1O
The melting point of the first is lower: 89 to 91 °C for the first, 150 to 153 °C for the second.

First: N#Cc1ccccc1-c1ccc(CNc2cc(Cl)nc3ccnn23)cc1
Second: O=C1NC(=O)c2ccccc2/C1=C/Nc1ccc(CCN2CCCC2)cc1
The melting point of the first is lower: 162 to 163 °C for the first, 224 to 225 °C for the second.

Compared with `Cc1ccccc1Nc1nc(Cl)c2sccc2n1`, `Cc1ccccc1C=C1CCn2c1nc1ccc(C(N)=O)cc1c2=O` is higher in melting point: 87 to 89 °C for the first, 347 to 349 °C for the second.

First: CC(C)(O)c1ccc(CNC(=O)c2cccnc2Oc2ccc3nsnc3c2)c(F)c1
Second: COc1ccc(Cn2nc(-n3cnn(Cc4ccc(F)cc4)c3=O)cc2C(=O)NCc2cccnc2)cc1
The melting point of the first is lower: 124 to 125 °C for the first, 210 to 211 °C for the second.

Compared with `CC(=O)N[C@@H](C)COC1CCN(c2nc3ccc(OCC4CC4)cc3s2)CC1`, `Cc1nc(-n2cnn(CC3CC3)c2=O)sc1C(=O)NCc1ccncc1` is higher in melting point: 121 to 122 °C for the first, 169 to 170 °C for the second.

First: O=C(O)Cc1c(C(=O)O)c2cc(Oc3cccc(OC(F)(F)F)c3)ccc2n1-c1ccc(OC(F)(F)F)cc1
Second: COc1ccc(C2(C#Cc3cccc(-c4noc(C(F)(F)F)n4)c3)CCCC(=O)C2)cc1OC1CCCC1 (stereo not given)
The melting point of the first is higher: 188 to 193 °C for the first, 99 to 100 °C for the second.

Compared with `NCCNC(=S)Nc1c(Br)cccc1Br`, `CSC(=O)C(=O)c1ccnc(NC=O)c1` is higher in melting point: 155 to 157 °C for the first, 165 to 167 °C for the second.

Compared with `CC(O)C(C)(C)NC(N)=S` (stereo not given), `CCOc1cc2c(cc1OC)Cc1c([nH]cnc1=O)N2` is higher in melting point: 148 to 151 °C for the first, 318 to 320 °C for the second.
